Source: patent US9056067B2, “Pharmaceutical composition for enhancing immunity, and extract of Poria” (Sinphar Pharmaceutical Co., Ltd., priority 2003, dated 2015)

Assays:
[1] = system: IgM; assay: IgM secretion by spleen cells in vitro (LPS, ELISA) after oral administration; type: in vivo, mice; conditions: for Dose with significant increase in IgM secretion by spleen cells: oral, after three days of in vitro culture
Method: (§1) […] […] The control group was the mice feeding with an equal volume of saline (0.85% of NaCl). Mice were sacrificed at day five, and both the serum and spleen cells were collected. The sera were subsequently used to measure the concentration of IgG, IgM and IgA. The spleen cells were plated onto a 100 mm diameter culture plate and incubated at 37° C. for three hours. The non-adherent cells containing T-lymphocytes, B-lymphocytes and NK cells were collected and properly diluted as described in each assay.
(§2) The mouse to be sacrificed was cervical dislocated and sterilized with 70% ethanol. The cardiac punctuation was performed first to withdraw the blood. After the haemagglutination, the blood sample was subjected to centrifugation and the serum was collect. For isolation of spleen cells, the peritoneum was opened to remove the spleen. The fresh spleen was transferred to a culture plate containing 10 ml of RPMI-1640 culture medium. The spleen was then ground over a fine mesh to release the spleen cells. The spleen cells suspending in the medium were then removed and transferred to a 50-ml conical centrifuge tube. The tube was subjected to centrifugation at 1300 rpm for 10 min. The supernatant was discarded and the pellet was re-suspended in 1 ml of cold RBC lysing buffer containing EDTA-NH4Cl. The cells were incubated at room temperature for 10 min, followed by washing the cells three times with culture medium by centrifugation. The spleen cells were plated onto a 100 mm diameter culture plate and incubated at 37° C. for three hours. The non-adherent cells containing T-lymphocytes, B-lymphocytes and NK cells were collected and properly diluted as described in each assay.
(§3) An ELISA was performed in our study to measure the immunoglobulin concentration. Briefly, the spleen cells (5×10^5 cells/ml) were cultured in a medium containing RPMI 1640 supplemented with 10% fetal bovine serum (FBS), 2 mM L-glutamine, antibiotics and 5 μg/ml lipopolysaccharide (LPS; 1 μg/10^5 cells) for 5 days. LPS is a polyclonal activator of B lymphocyte. Culture spleen cell supernatants were collected at day 3, 4 and 5. IgA, IgG and IgM concentrations were measured using a sandwich ELISA technique.
(§4) The procedure for IgM assay was similar to that for IgG assay, except that the samples were 1/10^4 diluted and standard IgM ranged from 1 μg/ml to 0.0156 μg/ml were added (100 μl/well). The secondary antibody for the assay was HRP-conjugated goat anti-mouse IgM (1:1,000 diluted; heavy chain-specific; Zymed Laboratory, CA).

[2] = system: IgA; assay: Serum level of IgA (ELISA); type: in vivo, mice; conditions: for Effect on serum concentrations of IgA (in words): oral
Method: as §1, §2, §3
as §4, with “IgA” for “IgM”, “IgA (1:1000” for “IgM (1:1,000”, “diluted;” for “diluted; heavy chain-specific;”

[3] = oral 10 mg/kg/day for four days
[4] = oral 20 mg/kg/day for four days

Row | SMILES | IgM secretion by spleen cell, incubation day 3 ([1]; oral 5 mg/kg/day for four days) | IgM secretion by spleen cell, incubation day 4 ([1]; oral 5 mg/kg/day for four days) | IgM secretion by spleen cell, incubation day 5 ([1]; oral 5 mg/kg/day for four days) | IgM secretion by spleen cell, incubation day 3 [1, 3] | IgM secretion by spleen cell, incubation day 4 [1, 3] | IgM secretion by spleen cell, incubation day 5 [1, 3] | IgM secretion by spleen cell, incubation day 3 [1, 4] | IgM secretion by spleen cell, incubation day 4 [1, 4] | IgM secretion by spleen cell, incubation day 5 [1, 4] | Dose with significant increase in IgM secretion by spleen cells [1] | Effect on serum concentrations of IgA (in words) [2] | Serum immunoglobulin concentration IgA ([2]; oral 5 mg/kg/day for four days) | Serum immunoglobulin concentration IgA [2, 3] | Serum immunoglobulin concentration IgA [2, 4]
1 | C=C(CC[C@@H](C(=O)O)[C@H]1[C@H](O)C[C@@]2(C)C3=CC[C@H]4C(C)(C)C(=O)CC[C@]4(C)C3=CC[C@]12C)C(C)C [K3] | 222.42 ± 42.83 | 214.45 ± 28.51 | 277.52 ± 101.63 | 287.66 ± 44.44 | 294.30 ± 30.68 | 309.51 ± 30.88 | 372.14 ± 69.48 | 519.53 ± 52.63 | 606.44 ± 88.10 | 10 mg/kg/day | no effect | 3.65 ± 0.26 mg/mL | 3.81 ± 0.46 mg/mL | 3.55 ± 0.37 mg/mL
2 | C=C(CCC(C(=O)O)C1C(O)CC2(C)C3=CCC4C(C)(CCC(O)C4(C)C)C3=CCC12C)C(C)C (stereo not shown) [K4] | 463.65 ± 76.41 | 688.17 ± 85.78 | 649.89 ± 70.09 | 514.45 ± 70.30 | 733.58 ± 95.70 | 807.32 ± 104.21 | 747.6 ± 128.42 | 746.50 ± 157.76 | 857.49 ± 92.19 | ≥ 5 mg/kg/day | no effect | 3.33 ± 0.13 mg/mL | 3.39 ± 0.25 mg/mL | 3.54 ± 0.12 mg/mL
